Assay results as given in US12559629B2, “Method for preparing a stable Trypan Blue solution” (BECKMAN COULTER, INC., priority 2020, dated 2026).
Read-outs that look alike come from different tables or passages of the source.

Key:
[1] = Preliminary experiments: salt-induced precipitation/aggregation of 0.2% w/v aqueous Trypan Blue; assay type: physicochemical
[2] = Dye precipitation on mixing Nominal 0.4% Trypan Blue in NaCl with polycationic compounds; assay type: physicochemical; details: Nominal 0.4% Trypan Blue in NaCl (0.20 mL) mixed with 0.5 mg mL^−1 compound in PBS (0.20 mL)
Text: In the present study, Trypan Blue was mixed with various cell culture medium containing polycationic compounds. Nominal 0.4% Trypan Blue in NaCl was mixed with PBS (negative control), kanamycin (a positively charged aminoglycoside), and spermidine (a positively charged polyamine). […] This effect can be reasonably generalized to other polycationic compounds, particularly those containing amine functional groups.

[3] = cited from earlier work

In the case of `O=S([O-])[O-].[Na+].[Na+]` [sodium sulfite], the “Dye aggregation of Trypan Blue in presence of salt” value (“Dye aggregation of Trypan Blue” for short) ([1]; 150 mM sodium concentrations) is reported as “promoted dye aggregation”.

For `NCCCCNCCCN` [spermidine], the “Precipitation of Trypan Blue” value [2] was “trigger immediate precipitation of Trypan Blue”.

In the case of `Cc1cc(-c2ccc(/N=N/c3ccc4c(S(=O)(=O)O)cc(S(=O)(=O)O)c(N)c4c3O)c(C)c2)ccc1/N=N/c1ccc2c(S(=O)(=O)O)cc(S(=O)(=O)O)c(N)c2c1O` [Evans Blue], the “Solubility of precipitate with neomycin” value ([3]; pH 8.5) is listed as “insoluble” and the “Solubility of precipitate with neomycin” value ([3]; pH 10.4) is listed as “dissolves”.

For `[Cl-].[Na+]` [sodium chloride], the “Precipitation of 0.2% w/v Trypan Blue” value ([1]; 150 mM salt, storage for 16 hours at 4° C.) was “exhibited precipitation” and the “Precipitation of the dye from 0.2% w/v aqueous solution of Trypan Blue” value ([1]; addition of 250 mM salt) was “rapid precipitation of the dye”.

For `[Cl-].[K+]` [potassium chloride], the “Dye aggregation of Trypan Blue” value ([1]; 150 mM concentrations) was “produced dye aggregation”.

With `[Cl-].[Cs+]` [cesium chloride] the “Dye aggregation of Trypan Blue” value ([1]; 150 mM concentrations) was “produced dye aggregation”.

In the case of `Cc1cc(-c2ccc(/N=N/c3c(S(=O)(=O)O)cc4cc(S(=O)(=O)O)cc(N)c4c3O)c(C)c2)ccc1/N=N/c1c(S(=O)(=O)O)cc2cc(S(=O)(=O)O)cc(N)c2c1O` [Trypan Blue], the “Formation of red colored dye aggregates” value ([1]; 0.2% w/v in deionized water, two weeks at 4° C.) is reported as “did not form red colored dye aggregates”.

With `[Cl-].[Li+]` [lithium chloride] the “Dye aggregation of Trypan Blue” value ([1]; concentrations as high as 600 mM) was “did not promote dye aggregation”.

With `O=P([O-])(O)O.[Na+]` [monosodium phosphate] the “Dye aggregation of Trypan Blue” value ([1]; 150 mM sodium concentrations) was “promoted dye aggregation”.
